Results as given in patent US6815464B2, “Carbamate compounds for use in the treatment of pain” (Ortho-McNeil Pharmaceutical, Inc., priority 2001, dated 2004).
Marks after values point to notes of the source that are not given here.

System: sciatic nerve loose ligation in rats
Experiment: Bennett model (Chronic Constrictive Injury), thermal stimulation, paw-withdrawal latency
Type: in vivo
Conditions: rat; for Antihyperalgesic Effectiveness (% Effective): vs vehicle control; for anti-hyperalgesic effect against a thermal stimulation challenge: p.o., summary statement in words
Text: Bennett Model (Chronic Constrictive Injury)
The Bennett model consists of sciatic nerve loose ligation in rats (Bennett G J and Xie Y K, A peripheral mononeuropathy in rat that produces disorders of pain sensation like those seen in man, Pain, 1988, 33, 87-107). Although the pharmacological profile of the spontaneous pain, protective posture and allodynia (minor) is similar to that of clinical neuropathic pain, the loose chronic ligature of sciatic nerve in the Bennett model causes greater thermal hyperalgesia than mechanical allodynia due to its inflammatory mechanism. The loose ligation causes the constriction/swelling followed by inflammation at the ligation site, a condition most commonly associated with various types of pain. The behavioral response to the ligature is one of hyperalgesia. Thus, anti-hyperalgesia reduces chronic signs of pain hypersensitivity. Therefore, the Bennett model is used to evaluate antinociceptive pain (Cui J G, Possible role of inflammatory mediators in tactile hypersensitivity in rat models of mononeuropathy, Pain, 2000, 88 (3), 239-248; Lovell J A, Changes in Spinal Serotonin Turnover Mediate Age-Related Differences in the Behavioral Manifestations of Peripheral Nerve Injury, Pharmacol. Biochem. Behav., 2000, 66 (4), 873-878; Yasuda T, The novel analgesic compound OT-7100[5-n-butyl-7-(3,4,5-trimethoxybenzoylamino)pyrazolo[1,5a]pyrimidine] attenuates mechanical nociceptive responses in animal models of acute and peripheral neuropathic hyperalgesia, J. Pharmacol., 1999, 79 (1), 65-73; Toda K, Antinociceptive effects of neurotropin in a rat model of painful peripheral mononeuropathy, Life Sci., 1998, 62 (10), 913-921; Munglani R, Neuropeptide changes persist in spinal cord despite resolving hyperalgesia in a rat model of mononeuropathy, Brain Res., 1996, 743, 1 (2), 102-108).
[…] The anti-hyperalgesia effect was assessed at 30, 60, and 90 minutes after the oral administration.
Rats (180-220 g body weight) were anesthetized (sodium pentobarbital, 40 mg/kg, ip) and an incision was made at the mid-thigh level to expose the common left sciatic nerve. Four ligatures spaced 1 mm apart were loosely tied around the sciatic nerve. The wound was then sutured. The rats received an i.m. injection of 50,000 IU Penicillin and were allowed to recover after this procedure. At least one week after the surgery, when the chronic state was fully established, rats were consecutively submitted to thermal stimulation of both the non-lesioned and the lesioned hind-paws. The apparatus (UgoBasil, Reference: 7371) consists of 6 individual Plexiglas boxes (17×13×13 cm) placed upon an elevated glass floor. The rat was placed in the box and allowed to habituate for 10 minutes. A mobile infrared radiant source (setting 20) was then focused under the non-lesioned and lesioned hind-paws and the paw-withdrawal latencies in seconds were automatically recorded. The test was performed in a blinded fashion. The increased latency in treated animals as compared to control animals (those receiving only vehicle) was expressed as % of effectiveness of the drug. Data were analyzed by comparing the treated lesion group with controls using unpaired Student's t-test.

[1] = 10 mg/kg p.o., 60 min after administration
[2] = 10 mg/kg p.o., 90 min after administration
[3] = 30 mg/kg p.o., 30 min after administration
[4] = 30 mg/kg p.o., 60 min after administration
[5] = 30 mg/kg p.o., 90 min after administration
[6] = 300 mg/kg p.o., 30 min after administration
[7] = 300 mg/kg p.o., 60 min after administration
[8] = 300 mg/kg p.o., 90 min after administration

| Structure (SMILES) | Antihyperalgesic Effectiveness (% Effective) [1] | Antihyperalgesic Effectiveness (% Effective) [2] | Antihyperalgesic Effectiveness (% Effective) [3] | Antihyperalgesic Effectiveness (% Effective) [4] | Antihyperalgesic Effectiveness (% Effective) [5] | Antihyperalgesic Effectiveness (% Effective) [6] | Antihyperalgesic Effectiveness (% Effective) [7] | Antihyperalgesic Effectiveness (% Effective) [8] | anti-hyperalgesic effect against a thermal stimulation challenge |
| --- | --- | --- | --- | --- | --- | --- | --- | --- | --- |
| NC(=O)OC[C@H](OC(N)=O)c1ccccc1Cl [Formula (IIb)] | 121% | 50% | 61% | 318** % | 182** % | 48% | 198** % | 69% | anti-hyperalgesic effect |
| NC(=O)OC[C@@H](O)c1ccccc1Cl [Formula (Ib)] | 79% | 53% | 59% | 109% | 107% | 43% | 314** % | 151% | anti-hyperalgesic effect |
